Measured values: patent publication US20010012846A1, “Quinoline-4-carboxamide derivatives as NK-2 and NK-3 receptor antagonists” (priority 1997, published 2001)
Values joined by “and” are separate entries in the source; they are usually repeats but may differ in a detail not shown here. Identical values can stand only once. Counter-ions that a name gives are not always drawn.

Key:
[1] = target: T1, human neurokinin-2 receptor (Homo sapiens, UniProt P21452); test: Binding affinity to human NK-2 receptor expressed in CHO cells (inhibition of [125I]-NKA or [3H]-NKA binding); settings: human neurokinin-2 receptor expressed in CHO cell lines; read-out: Binding affinity, Ki (nM) hNK-2-CHO
T1 construct: expressed in transfected cells; host or cells: CHO
T1 sequence (P21452 1-398): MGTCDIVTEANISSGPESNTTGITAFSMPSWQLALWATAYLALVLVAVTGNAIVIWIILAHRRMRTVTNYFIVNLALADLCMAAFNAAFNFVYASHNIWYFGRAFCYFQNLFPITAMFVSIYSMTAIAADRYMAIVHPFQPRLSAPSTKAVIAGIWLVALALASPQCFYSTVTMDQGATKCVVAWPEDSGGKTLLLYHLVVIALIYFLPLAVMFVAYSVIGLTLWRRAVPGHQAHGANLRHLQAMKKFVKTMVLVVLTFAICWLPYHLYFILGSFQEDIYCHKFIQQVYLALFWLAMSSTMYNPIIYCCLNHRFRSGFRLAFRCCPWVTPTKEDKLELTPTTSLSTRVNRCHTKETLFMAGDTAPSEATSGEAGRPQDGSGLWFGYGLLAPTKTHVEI
Description: The activity of the compounds of the present invention, as NK-2 ligands, is determined by their ability to inhibit the binding of the radiolabelled NK-2 ligands, [^125I]-NKA or [^3H]-NKA, to human NK-2 receptors (Aharony et al, 1992, Neuropeptide, 23, 121-130).
The binding assays utilized allow the determination of the concentration of the individual compound required to reduce by 50% the [^125I]-NKA and [^3H]-NKA specific binding to NK2 receptor in equilibrium conditions (IC50).
Binding assays provide for each compound tested a mean IC50 value of 2-5 separate experiments performed in duplicate or triplicate. […] The NK-2-antagonist activity of the compounds of the present invention is determined by their ability to inhibit human NK-2 receptor-mediated Ca^++ mobilization (Mochizuki et al, 1994, J. Biol. Chem., 269, 9651-9658). Human receptor functional assay allows the determination of the concentration of the individual compound required to reduce by 50% (IC50 values) the Ca^++ mobilization induced by the agonist NKA. In this assay, the compounds of the present invention behave as antagonists.

[2] = target: T2, human neurokinin-3 receptor (Homo sapiens, UniProt P29371); test: Binding affinity to human NK-3 receptor expressed in CHO cells (inhibition of [125I]-[Me-Phe7]-NKB or [3H]-Senktide binding); settings: human neurokinin-3 receptor expressed in CHO cell lines; read-out: Binding affinity, Ki (nM) hNK-3-CHO
T2 construct: expressed in transfected cells; host or cells: CHO
T2 sequence (P29371 1-465): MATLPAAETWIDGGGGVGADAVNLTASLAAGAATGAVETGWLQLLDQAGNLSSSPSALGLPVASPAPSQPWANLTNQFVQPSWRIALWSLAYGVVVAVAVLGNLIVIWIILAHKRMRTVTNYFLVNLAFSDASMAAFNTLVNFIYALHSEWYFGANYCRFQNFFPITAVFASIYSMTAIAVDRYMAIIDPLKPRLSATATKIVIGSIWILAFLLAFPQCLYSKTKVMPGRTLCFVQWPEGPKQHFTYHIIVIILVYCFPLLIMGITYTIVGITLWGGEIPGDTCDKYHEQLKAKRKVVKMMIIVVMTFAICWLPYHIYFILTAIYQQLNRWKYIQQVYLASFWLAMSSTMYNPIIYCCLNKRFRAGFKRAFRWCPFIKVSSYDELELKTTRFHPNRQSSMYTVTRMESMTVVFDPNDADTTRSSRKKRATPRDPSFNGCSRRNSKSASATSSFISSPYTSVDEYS
Description: The activity of the compounds of the present invention, as NK3 ligands, is determined by their ability to inhibit the binding of the radiolabelled NK3 ligands, [^125I]-[Me-Phe^7]-NKB or [^3H]-Senktide, to guinea-pig and human NK3 receptors (Renzetti et al, 1991, Neuropeptide, 18, 104-114; Buell et al, 1992, FEBS, 299(1), 90-95; Chung et al, 1994, Biochem. Biophys. Res. Commun., 198(3), 967-972).
The binding assays utilized allow the determination of the concentration of the individual compound required to reduce by 50% the [^125I]-[Me-Phe^7]-NKB and [^3H]-Senktide specific binding to NK3 receptor in equilibrium conditions (IC50).
Binding assays provide for each compound tested a mean IC50 value of 2-5 separate experiments performed in duplicate or triplicate. […] The NK3-antagonist activity of the compounds of the present invention is determined by their ability to inhibit senktide-induced contraction of the guinea-pig ileum (Maggi et al, 1990, Br. J. Pharmacol., 101, 996-1000) and rabbit isolated iris sphincter muscle (Hall et al., 1991, Eur. J. Pharmacol., 199, 9-14) and human NK3 receptors-mediated Ca^++ mobilization (Mochizuki et al, 1994, J. Biol. Chem., 269, 9651-9658). Guinea-pig and rabbit in-vitro functional assays provide for each compound tested a mean KB value of 3-8 separate experiments, where KB is the concentration of the individual compound required to produce a 2-fold rightward shift in the concentration-response curve of senktide. Human receptor functional assay allows the determination of the concentration of the individual compound required to reduce by 50% (IC50 values) the Ca^++ mobilization induced by the agonist NKB. In this assay, the compounds of the present invention behave as antagonists.

SMILES	Ki [1]	melting point	Ki [2]
CC[C@H](NC(=O)c1c(CN2CCC(=O)CC2)c(-c2ccccc2)nc2ccccc12)c1ccccc1 [Example 17, (S)-N-(α-Ethylbenzyl)-3-[(4-oxopiperidin-1-yl)methyl]-2-phenylquinoline-4-carboxamide]	42.7 nM	> 95 °C	1.5 nM
CC[C@H](NC(=O)c1c(CN2CCC3(CC2)OCCO3)c(-c2ccccc2)nc2ccccc12)c1ccccc1 [Example 9, (S)-N-(α-ethylbenzyl)-3-[(1,4-dioxa-8-azaspiro[4.5]decan-8-yl)methyl]-2-phenylquinoline-4-carboxamide]	18.2 nM	170 to 173 °C	0.8 nM
CC[C@H](NC(=O)c1c(CN2CCN(C(C)C)CC2)c(-c2ccccc2)nc2ccccc12)c1ccccc1 (as salt: HCl) [Example 20]		178 to 182 °C	
CC[C@H](NC(=O)c1c(CN2CCC(O)CC2)c(-c2ccccc2)nc2ccccc12)c1ccccc1 [Example 18, (S)-N-(α-Ethylbenzyl)-3-[(4-hydroxypiperidin-1-yl)methyl]-2-phenylquinoline-4-carboxamide]	44.6 nM	203 to 207 °C	2.3 nM
CC[C@H](NC(=O)c1c(CN2CCN(C(C)C)CC2)c(-c2ccccc2)nc2ccccc12)c1ccccc1 [Example 20]	5.7 nM		1.8 nM
CC[C@H](NC(=O)c1c(CN2CCCCC2)c(-c2ccccc2)nc2ccccc12)c1ccccc1 (as salt: HCl) [Example 8]		140 °C (dec.)	
CC[C@H](NC(=O)c1c(CCCN2CCN(c3ccccc3)CC2)c(-c2ccccc2)nc2ccccc12)c1ccccc1 (as salt: HCl) [Example 13]		180 °C (dec.)	
CC[C@H](NC(=O)c1c(CN(C)CCO)c(-c2ccccc2)nc2ccccc12)c1ccccc1 [Example 6]	65.5 nM	167 to 170 °C	1.2 nM
CC[C@H](NC(=O)c1c(CCCN2CCN(c3ccccc3)CC2)c(-c2ccccc2)nc2ccccc12)c1ccccc1 [Example 13]	3.8 nM		0.3 nM
CC[C@H](NC(=O)c1c(CN2CCN(C)CC2)c(-c2ccccc2)nc2ccccc12)c1ccccc1 [Example 11]	66.8 nM		4 nM
CC[C@H](NC(=O)c1c(CN2CCN(C)CC2)c(-c2ccccc2)nc2ccccc12)c1ccccc1 (as salt: HCl) [Example 11]		195 to 198 °C	
CC[C@H](NC(=O)c1c(CCN2CCN(c3ccccc3)CC2)c(-c2ccccc2)nc2ccccc12)c1ccccc1 (as salt: HCl) [Example 12]		206 °C (dec.)	
CC[C@H](NC(=O)c1c(CN2CCCCC2)c(-c2ccccc2)nc2ccccc12)c1ccccc1 [Example 8]	24.1 nM		0.9 nM
CC[C@H](NC(=O)c1c(CCN2CCN(c3ccccc3)CC2)c(-c2ccccc2)nc2ccccc12)c1ccccc1 [Example 12]	39 nM		1.9 nM

Now from value to compound:

Ki [1]	melting point	Ki [2]	SMILES
6.4 nM	182 to 183 °C	0.9 nM	CC[C@H](NC(=O)c1c(CCCN2C(=O)c3ccccc3C2=O)c(-c2ccccc2)nc2ccccc12)c1ccccc1 [Example 21]
64.8 nM	100 to 105 °C	2.9 nM	CC[C@H](NC(=O)c1c(CN2CC[C@@H](O)C2)c(-c2ccccc2)nc2ccccc12)c1ccccc1 [Example 33]
3.3 nM	100 to 105 °C	0.9 nM	CC[C@H](NC(=O)c1c(CCCN2CCN(c3ccc(Cl)cc3)CC2)c(-c2ccccc2)nc2ccccc12)c1ccccc1 [Example 24]
38 nM	142 to 145 °C	1.5 nM	CC[C@H](NC(=O)c1c(CN2CCC(=O)C2)c(-c2ccccc2)nc2ccccc12)c1ccccc1 [Example 34, (S)-N-(α-ethylbenzyl)-3-[(3-oxo)pyrrolidin-1-ylmethyl]-2-phenylquinoline-4-carboxamide]
9.7 nM	102 to 105 °C	1.2 nM	CC[C@H](NC(=O)c1c(CCCN2CCN(c3cccc(C(F)(F)F)c3)CC2)c(-c2ccccc2)nc2ccccc12)c1ccccc1 [Example 23]
	94 to 98 °C and 94.5 to 98 °C		CC[C@H](NC(=O)c1c(CN2CCNCC2)c(-c2ccccc2)nc2ccccc12)c1ccccc1 [Example 28, (S)-N-(α-Ethylbenzyl)-3-[(piperazin-1-yl)methyl]-2-phenylquinoline-4-carboxamide]
53.5 nM	100 to 110 °C (dec.)	2.8 nM	CC[C@H](NC(=O)c1c(CCN2CCN(c3ccc(Cl)cc3)CC2)c(-c2ccccc2)nc2ccccc12)c1ccccc1 [Example 27]
143 nM	156 to 160 °C	3.9 nM	CC[C@H](NC(=O)c1c(CN2CCC3(CCCC3)CC2)c(-c2ccccc2)nc2ccccc12)c1ccccc1 [Example 31]
68.8 nM	90 to 95 °C	3.2 nM	CC[C@H](NC(=O)c1c(CN2CC[C@H](O)C2)c(-c2ccccc2)nc2ccccc12)c1ccccc1 [Example 32, (S)-N-(α-ethylbenzyl)-3-[(3-(S)-hydroxy)pyrrolidin-1-ylmethyl]-2-phenylquinoline-4-carboxamide]
27.1 nM	96 to 98 °C	3 nM	CC[C@H](NC(=O)c1c(CCN2CCN(c3ccc(F)cc3)CC2)c(-c2ccccc2)nc2ccccc12)c1ccccc1 [Example 30]
12.7 nM	75 to 78 °C	1.7 nM	CC[C@H](NC(=O)c1c(CN2CCN(CC)CC2)c(-c2ccccc2)nc2ccccc12)c1ccccc1 [Example 36]
1.7 nM	85 °C (dec.)	0.4 nM	CC[C@H](NC(=O)c1c(CN2CCN(Cc3ccccc3)CC2)c(-c2ccccc2)nc2ccccc12)c1ccccc1 [Example 26, (S)-N-(α-ethylbenzyl)-3-[(4-benzylpiperazin-1-yl)methyl]-2-phenylquinoline-4-carboxamide]
1.5 nM	75 to 80 °C	0.5 nM	CC[C@H](NC(=O)c1c(CCCN2CCC(c3ccccc3)CC2)c(-c2ccccc2)nc2ccccc12)c1ccccc1 [Example 25]
44.9 nM	115 to 117 °C	2.9 nM	CC[C@H](NC(=O)c1c(CCN2CCN(c3cccc(C(F)(F)F)c3)CC2)c(-c2ccccc2)nc2ccccc12)c1ccccc1 [Example 22]
35.6 nM		0.8 nM	CC[C@H](NC(=O)c1c(CCN2CCN(C(C)C)CC2)c(-c2ccccc2)nc2ccccc12)c1ccccc1 [Example 39]
